Measured values as given in patent publication US20120136033A1, “Small Molecule Antagonists of Phosphatidylinositol-3,4,5-Triphosphate (PIP3) and Uses Thereof” (President and Fellows of Harvard College, priority 2009, published 2012).

Experiments:
caspase-3 = assay: Western blot of caspase-3 cleavage and PARP processing; format: cell-based
Text: Since PI3K/PIP3/Akt signaling plays a critical role in the inhibition of apoptosis (Datta S R et al. (1999) Genes Dev 13:2905-27), the possibility that PITs induce apoptosis was examined. […] Proapoptotic Bcl-2 family members Bax and Bak are important mediators of apoptosis. Wei M C et al. (2001) Science 292:727-30. […] Non-apoptotic mechanisms of cell death may also play some additional, albeit less important, role in PIT-induced killing, as some cell death was still observed in Bax/Bak-deficient cells and in the presence of zVAD.fmk.

[1] = system: SV40-transformed mouse adult lung fibroblasts; assay: loss of viability, Akt1-expressing vs Akt1-3 triple knockout lung fibroblasts; format: cell-based; conditions: P<0.01
Text: Shaughnessy J D (2008) Nature 454:172-3; Weinstein I G (2002) Science 297:63-4. Therefore, the possibility that PIT-1 may cause preferential cell death in the cells containing elevated PIP3 levels was examined. […] Li D M et al. (1998) Proc Natl Acad Sci USA 95:15406-11. […] This observation is consistent with the notion that PTEN-deficient cancer cells become overly dependent on PIP3 signaling and, therefore, are hypersensitive to disruption of this pathway compared to wild-type PTEN-expressing cells. Neshat M S et al. (2001) Proc Natl Acad Sci USA 98:10314-9.

[2] = molecular target: T1, PH domain of Akt (His6-Akt123) (Homo sapiens, UniProt P31749); assay: NMR 2D HSQC 1H-15N binding analysis, His6-Akt123
T1 construct: Human Akt PH domain a.a; 1-123; made in house; host or cells: E. coli BL21(DE3)
Method: Human Akt PH domain a.a. 1-123 and human PDK1 PH domain a.a. 411-557 were cloned by PCR amplification into Bam HI/Eco RI sites of pGEX-6P-1 vector (GE Healthcare). For NMR experiments, His6-Akt PH123 was prepared by cloning corresponding PCR fragment between Nde I and Eco RI sites of pET-28 vector (Novagen). Recombinant proteins were expressed in BL21(DE3) E. coli. Expression was induced by addition of 100 μM IPTG for 16 hr at 25° C. Proteins were purified using glutathione-sepharose (GE Healthcare) or Ni-NTA beads (Qiagen) according to manufacturer's recommendations and dialyzed overnight against 50 mM Tris-HCl (pH 7.5), 150 mM NaCl, and 5 mM β-mercaptoethanol (b-ME) buffer.
To further characterize the mode of action of PIT-1, NMR-based analyses of PIT-1 binding to the PH domain of Akt were performed. […] PIT-1 was further titrated to identify residues primarily affected by the small molecule binding.

Bcl-xL = Bcl-xL (Homo sapiens, UniProt Q07817); assay: NMR HSQC specificity control, Bcl-xL; format: binding
[3] = molecular target: T2, Akt PH domain (PH123, 1-123 a.a. N-terminal fragment of human Akt1) (Homo sapiens, UniProt P31749); assay: fluorescence polarization (FP) PIP3/Akt PH domain binding assay; conditions: 15 nM TMR-PIP3, 5 μM GST-PH domain of Akt, 30 min, read-out: IC50, disruption of PIP3/Akt PH domain binding
T2 construct: recombinant GST fusion proteins containing 1-123 a.a; N-terminal fragment of human Akt1 (PH 123); made in house; host or cells: E. coli BL21(DE3)
Method: 15 nM TMR-conjugated PIP3 were incubated with 5 μM GST-PH domain of Akt in the presence or absence of the indicated concentrations of PITs (0-200 μM) for 30 min, followed by FP measurement.
In order to identify compounds that disrupt the interaction between PIP3 and PH domains, a high-throughput fluorescence polarization (FP)-binding assay was developed using recombinant 1-123 amino acid N-terminal fragment of human Akt1 (also referred to herein simply as Akt), encompassing the PH domain (PH123 protein), and fluorescent NBD-labeled PIP3 molecule. […] Briefly, 5 μM recombinant GST fusion proteins containing 1-123 a.a. N-terminal fragment of human Akt1 (PH 123) or 100 nM 441-551 a.a. region of human PDK1 were incubated with 15 nM TMR-labeled PIP3, PIP2, or PIP5 in buffer containing 50 mM Tris-HCl (pH 7.5), 150 mM NaCl, and 5 mM b-ME for 15 min at room temperature in the dark. FP values were determined using Wallac Victor 3 plate reader. […] Incubations were carried out for 1 hr. For secondary assays, PIT compounds were added at various concentrations (6.25, 12.5, 25, 50, 100, 150 and 200 μM), followed by a 30 min incubation. The inhibition rates were calculated as: inhibition rate=[1−(compound-treated group/control group)]×100%, and IC50 value was determined using Origin6 software (MicroCal, LLC, Northampton, Mass.).

[4] = system: PI3K/PDK1/Akt signaling pathway; assay: PI3K/PDK1/Akt signaling in HUVEC, Western blotting; format: cell-based, human; conditions: 50, 100, 200 μM, 2 hr, bFGF
Method: Endothelial cell migration plays a central role in tumor angiogenesis. Avraamides C J et al. (2008) Nat Rev Cancer 8:604-17. […] First, human umbilical vein endothelial cells (HUVEC) cells were serum starved overnight, and treated with different concentrations of PIT-1 (50, 100 and 200 μM) for 2 hr, followed by stimulation with 10 ng/ml bFGF for 15 min, and the PIP3-dependent phosphorylation events were evaluated by Western blotting.

[5] = system: AMP-activated protein kinase (AMPK); assay: phosphorylation of AMPK and ACC (metabolic stress); format: cell-based
Text: Changes in cell metabolism have emerged in recent years as an important component of PI3K/PIP3/Akt signaling, contributing to the regulation of cell viability and transformation by the PI3K/Akt pathway. Datta S R et al. (1999) Genes Dev 13:2905-27; Elstrom R L et al. (2004) Cancer Res 64:3892-9. Therefore, the possibility that PIT-1 may cause dysregulation of energy homeostasis and induction of the metabolic stress in cancer cells, which may contribute to the PIT-induced cell death, was investigated. […] Hardie D G (2007) Nat Rev Mol Cell Biol 8:774-85. […] Mathew R et al. (2007) Nat Rev Cancer 7:961-7. […] Takeuchi H et al. (2005) Cancer Res 65:3336-46.

U87MG cells = assay: U87MG cell viability, ATP assay; format: cell-based, human; conditions: for viability of U87MG cells: 12.5-100 μM, 48 hr, ATP assay
Method: U87MG cells were incubated with PITs (12.5-100 μM) for 48 hr. Cell viability was determined using ATP assay.
Based on the critical role of PIP3-dependent Akt signaling in the regulation of cell survival, the effect of PIT-1 on the cancer cell viability was tested. Cancer cells were seeded into 96-well plates (white plates for ATP assay; black plates for fluorescent assay; clear plates for MTS assay) at the density of 5-10×10^3 cells per well in 100 μl of the appropriate media. Compounds were added at a series of concentrations and incubated for different times. For the ATP assay, a luminescence-based commercial kit (CellTiter-Glo, Promega, Madison, Wis.) was used. Thirty microliters of cell lysis/ATP detection reagent was added to each well, mixed for 10 min at room temperature, and the luminescence was measured using a Wallac Victor 3 plate reader (Perkin-Elmer, Wellesley, Mass.). For the MTS assay, a CellTiter 96 AQueous Non-Radioactive Cell Proliferation Assay Kit (Promega, Madison, Wis., USA) was used. Twenty microliters of the combined MTS/PMS solution was added into each well, incubated for 4 hr at 37° C., and the absorbance at 490 nm was measured using a Wallac Victor 3 plate reader. For the Sytox cell death assay, measuring loss of plasma membrane integrity, cells were incubated with 1 μM Sytox Green reagent (Molecular Probes, Eugene, Oreg.) for 30 min at 37° C. and the fluorescence intensity was measured using Wallac Victor 3 plate reader with excitation at 485 nm and emission at 545 nm. Next, 5 μl of 20% (v/v) Triton X-100 solution was added to each well and incubated for 1 hr at 37° C., and the signal was measured again. The ratio of values (percentage of dead cells in each well) before and after Triton X-100 treatment was calculated and normalized to the relevant controls not subjected to the cytotoxic stimuli. IC50 values were determined using Origin6 software (MicroCal, LLC, Northampton, Mass.).

T2 sequence (P31749 1-123): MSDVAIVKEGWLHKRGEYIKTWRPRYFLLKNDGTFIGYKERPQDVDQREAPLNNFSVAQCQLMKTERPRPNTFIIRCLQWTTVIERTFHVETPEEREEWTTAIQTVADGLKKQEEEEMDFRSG
T1 sequence (P31749 1-123): as above
Sequence of Bcl-xL (Q07817 whole entry, species assumed, the tested form may be a part): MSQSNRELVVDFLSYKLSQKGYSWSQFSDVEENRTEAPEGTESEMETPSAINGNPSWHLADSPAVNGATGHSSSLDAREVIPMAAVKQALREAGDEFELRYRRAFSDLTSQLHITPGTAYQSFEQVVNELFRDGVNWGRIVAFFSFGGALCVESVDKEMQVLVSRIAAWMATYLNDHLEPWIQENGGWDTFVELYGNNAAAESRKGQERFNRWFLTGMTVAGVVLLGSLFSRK

Row | Compound | cleavage/activation of caspase-3 and processing of PARP (caspase-3) | loss of viability in Akt1-expressing fibroblasts compared to Akt1-3 triple knockout cells [1] | changes in 2D HSQC spectrum of His6-Akt123 [2] | changes in HSQC spectrum of Bcl-xL (Bcl-xL) | IC50 [3] [µM] | PI3K/PDK1/Akt signaling pathway in HUVEC [4] | phosphorylation of AMPK [5] | phosphorylation of acetyl-CoA carboxylase (ACC) [5] | killing of U87MG cells compared with LY294002 (U87MG cells) | viability of U87MG cells (U87MG cells)
1 | O=C(NC(=S)Nc1cc([N+](=O)[O-])cc(Cl)c1O)c1ccccc1 [PIT-1] | induced the cleavage/activation | more pronounced | induces significant changes | did not elicit any changes | 28.1 | capable of blocking | significant increase in the phosphorylation | Increased phosphorylation | more pronounced than that by the PI3K inhibitor LY294002 | reduce viability
2 | O=C1NC(=S)S/C1=C\c1cc(O)c([N+](=O)[O-])cc1Cc1ccccc1 [PIT-2] |  | more pronounced |  |  | 31.5 |  |  |  |  | reduce viability
